ChEMBL document CHEMBL4814068, “Synthesis and structure-activity relationships of new chiral spiro-β-lactams highly active against HIV-1 and Plasmodium” (Eur J Med Chem, 2021)

Key:
[1] = Cytotoxicity against human TZM-bl cells assessed as reduction in cell viability by AlamarBlue assay; format: cell-based
[2] = system: Human immunodeficiency virus 1; experiment: Antiviral activity against HIV1 SG3.1 infected in human TZM-bl cells assessed as inhibition of viral replication at 10 ug/ml measured after 48 hrs by single round viral infectivity assay based Steady-Glo luciferase assay; format: functional; details: Human immunodeficiency virus 1, SG3.1, TZM-bl
[3] = system: Human immunodeficiency virus 2; experiment: Antiviral activity against HIV2 03PTHCC19 infected in human TZM-bl cells measured after 48 hrs by single round viral infectivity assay based Steady-Glo luciferase assay; format: functional, organism-based; details: Human immunodeficiency virus 2, 03PTHCC19, TZM-bl
Plasmodium berghei = experiment: Antiplasmodial activity against hepatic stage of Plasmodium berghei infected in human Huh7 cells assessed as reduction in parasite growth treated 1 hr prior to infection and measured after 48 hrs by firefly luciferase based bioluminescence assay; format: functional, organism-based; details: Huh-7
[4] = system: Human immunodeficiency virus 1; experiment: Antiviral activity against HIV1 SG3.1 infected in human TZM-bl cells measured after 48 hrs by single round viral infectivity assay based Steady-Glo luciferase assay; format: functional, organism-based; details: Human immunodeficiency virus 1, SG3.1, TZM-bl; for IC50: 48 h; for IC90: time 48 hrs
Plasmodium falciparum = experiment: Antiplasmodial activity against blood stage of Plasmodium falciparum NF54 assessed as inhibition of parasite growth measured after […] by SYBR green 1 dye based flow cytometry; format: functional, organism-based
Huh-7 = experiment: Cytotoxicity against human Huh-7 cells assessed as reduction in cell viability by AlamarBlue assay; format: cell-based

| SMILES | CC50 [1] [µM] | inhibition at 10 µg/mL [2] [%] | also measured |
| --- | --- | --- | --- |
| CC1(C)S[C@H]2N(C(=O)C23C[C@@H]2CN=N[C@]2(C(=O)OCc2ccccc2)C3C(=O)c2ccccc2)[C@H]1C(=O)OC(c1ccccc1)c1ccccc1 (some centres undefined) | 41.8 | 0 |  |
| CC1(C)S[C@H]2N(C(=O)C23C=C(C(=O)Oc2ccc4ccccc4c2)N=N3)[C@H]1C(=O)O (some centres undefined) | 68.6 | 0 |  |
| CC1(C)S[C@H]2N(C(=O)C23C=C(C(=O)Oc2ccc4ccccc4c2)N=N3)[C@H]1C(=O)OC(c1ccccc1)c1ccccc1 (some centres undefined) | 49.1 | 0 |  |
| CC(C)(C)OC(=O)C1=CC2(N=N1)C(=O)N1[C@@H](C(=O)OC(c3ccccc3)c3ccccc3)C(C)(C)S[C@@H]12 (some centres undefined) | 55.1 | 0 |  |
| CC(=O)C1C(C(=O)OCc2ccccc2)=CCC12C(=O)N1[C@@H](C(=O)OC(c3ccccc3)c3ccccc3)C(C)(C)S[C@@H]12 (some centres undefined) |  |  | IC50 [3]: 510 nM; IC50 (Plasmodium berghei): < 5000 nM; IC50 [4]: 650 nM |
| CCOC(=O)C1=CCC(C(=O)c2ccccc2)C12C(=O)N1[C@@H](C(=O)OC(c3ccccc3)c3ccccc3)C(C)(C)S[C@@H]12 (some centres undefined) | 57.1 | 0 |  |
| COC(=O)C1=CCC(C(=O)c2ccccc2)C12C(=O)N1[C@@H](C(=O)OC(c3ccccc3)c3ccccc3)C(C)(C)S[C@@H]12 (some centres undefined) | 54.9 | 0 |  |
| CC(C)(C)OC(=O)C1=CCC(C(=O)c2ccccc2)C12C(=O)N1[C@@H](C(=O)OC(c3ccccc3)c3ccccc3)C(C)(C)S[C@@H]12 (some centres undefined) | 43.2 | 0 |  |
| CC(C)(C)OC(=O)C1=CC2(N=N1)C(=O)N1[C@@H](C(=O)O)C(C)(C)S[C@@H]12 (some centres undefined) | 79 | 0 |  |
| COC(=O)C1=CC2(N=N1)C(=O)N1[C@@H](C(=O)OC)C(C)(C)S[C@@H]12 (some centres undefined) | 89.8 | 0 |  |
| CC1(C)S[C@H]2N(C(=O)C23CC=C(C(=O)OCc2ccccc2)C3C(=O)c2ccccc2)[C@H]1C(=O)OC(c1ccccc1)c1ccccc1 (some centres undefined) |  |  | IC50 [3]: 8 nM; IC50 (Plasmodium berghei): 550 nM; IC50 (Plasmodium falciparum): 430 nM; IC50 [4]: 14 nM |
| CC1(C)S[C@H]2N(C(=O)C23C(C(=O)OCc2ccccc2)=CCC3C(=O)c2ccccc2)[C@H]1C(=O)O (some centres undefined) | 56.6 | 0 |  |
| CC(C)(C)OC(=O)C1=CCC2(C(=O)N3[C@@H](C(=O)OC(c4ccccc4)c4ccccc4)C(C)(C)S[C@@H]32)C1C(=O)c1ccccc1 (some centres undefined) | 44.4 | 0 |  |
| CCOC(=O)C1=CCC2(C(=O)N3[C@@H](C(=O)OC(c4ccccc4)c4ccccc4)C(C)(C)S[C@@H]32)C1C(=O)c1ccccc1 (some centres undefined) | 59 | 99 | Activity (Huh-7): Non-Toxic; IC50 (Plasmodium berghei): 1920 nM; IC50 (Plasmodium falciparum): 844 nM; IC50 [4]: 305 nM; IC90 [4]: 479 nM |
| CCOC(=O)C1=CC2(N=N1)C(=O)N1[C@@H](C(=O)O)C(C)(C)S[C@@H]12 (some centres undefined) | 83.8 | 0 |  |
| CC1(C)S[C@H]2N(C(=O)C23N=NC(C(=O)OC(c2ccccc2)c2ccccc2)=C3C(=O)OC(c2ccccc2)c2ccccc2)[C@H]1C(=O)OC(c1ccccc1)c1ccccc1 (some centres undefined) | 33.5 | 0 |  |
| CC1(C)S[C@H]2N(C(=O)C23C=C(C(=O)OC(c2ccccc2)c2ccccc2)N=N3)[C@H]1C(=O)OC(c1ccccc1)c1ccccc1 (some centres undefined) | 54.4 | 0 |  |
| CC1(C)S[C@H]2N(C(=O)C23C=C(C(=O)O)N=N3)[C@H]1C(=O)O (some centres undefined) | 101 | 0 |  |
| CC1(C)S[C@H]2N(C(=O)C23CC=C(C(=O)OCc2ccccc2)C3C(=O)OCc2ccccc2)[C@H]1C(=O)OC(c1ccccc1)c1ccccc1 (some centres undefined) | 43.2 | 0 |  |
| COC(=O)C1CC2(N=N1)C(=O)N1[C@@H](C(=O)OC(c3ccccc3)c3ccccc3)C(C)(C)S[C@@H]12 (some centres undefined) |  |  | IC50 (Plasmodium berghei): < 10000 nM; IC50 [4]: 12 nM |
| COC(=O)C1=CCC2(C(=O)N3[C@@H](C(=O)OC(c4ccccc4)c4ccccc4)C(C)(C)S[C@@H]32)C1C(=O)c1ccccc1 (some centres undefined) | 53.2 | 99 | Activity (Huh-7): Non-Toxic; IC50 (Plasmodium berghei): 2290 nM; IC50 (Plasmodium falciparum): 1260 nM; IC50 [4]: 58 nM; IC90 [4]: 233 nM |
| COC(=O)[C@@H]1N2C(=O)C3(C(C(=O)OCc4ccccc4)=CCC3C(=O)c3ccccc3)[C@H]2SC1(C)C (some centres undefined) | 55.4 | 0 |  |
| CCOC(=O)C1=CC2(N=N1)C(=O)N1[C@@H](C(=O)OC(c3ccccc3)c3ccccc3)C(C)(C)S[C@@H]12 (some centres undefined) | 46.9 | 0 |  |
| CC1(C)S[C@H]2N(C(=O)C23NN=C(C(=O)OCc2ccccc2)C3C(=O)c2ccccc2)[C@H]1C(=O)OC(c1ccccc1)c1ccccc1 (some centres undefined) | 17.2 |  |  |
| CC1(C)S[C@H]2N(C(=O)C23CC=C(C(=O)OCc2ccccc2)C3C(=O)c2ccccc2)[C@H]1C(=O)O (some centres undefined) | 60.3 | 0 |  |
| COC(=O)C1=CC2(N=N1)C(=O)N1[C@@H](C(=O)NO)C(C)(C)S[C@@H]12 (some centres undefined) | 76.8 | 0 |  |
